In patent publication US20260373149A1, “MIXED LINEAGE KINASE DOMAIN LIKE PSEUDOKINASE (MLKL) ACTIVATORS” (Trustees of Tufts College, priority 2022, published 2026):
Substitutions are numbered along the chain they refer to.

What was measured:
Assay type in all cases: cell-based
[1] = biological target: T1, M272W mutant of MLKL (Mus musculus, UniProt Q9D2Y4, M272W); experiment: Viability of Mlkl-/- MEFs expressing M272W mutant of mouse MLKL-FLAG (CellTiter-Glo); conditions: 5 μM; 50 ng/ml Dox 6 hr, then 24 hr; FIG. 6
T1 sequence (Q9D2Y4 1-472 M272W): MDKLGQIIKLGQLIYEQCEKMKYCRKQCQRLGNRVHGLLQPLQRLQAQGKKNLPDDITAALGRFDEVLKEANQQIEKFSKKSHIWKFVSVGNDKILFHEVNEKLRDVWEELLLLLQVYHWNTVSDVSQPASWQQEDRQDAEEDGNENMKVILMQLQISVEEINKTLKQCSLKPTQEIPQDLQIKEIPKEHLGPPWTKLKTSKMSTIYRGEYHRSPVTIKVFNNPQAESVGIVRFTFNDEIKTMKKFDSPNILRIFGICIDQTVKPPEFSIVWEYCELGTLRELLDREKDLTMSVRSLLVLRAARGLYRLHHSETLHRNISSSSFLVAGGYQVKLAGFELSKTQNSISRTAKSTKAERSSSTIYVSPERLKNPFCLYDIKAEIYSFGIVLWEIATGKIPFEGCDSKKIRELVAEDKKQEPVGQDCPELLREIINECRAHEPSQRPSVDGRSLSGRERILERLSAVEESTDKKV
Protocol: (§1) Plots show cell viability (%) versus MLKL mutant expressed. […] Cells conditionally expressing wild type and mutants of MLKL have been generated. M272W mutant of MLKL is active but predicted not to bind to MLKL activators. S345A/S347A mutant of MLKL lacks RIPK3 phosphorylation sites. Cells were treated with 50 ng/ml of Dox for 6 hr followed by MLKL activators (left panels) or TNFα/IDN6556 (right panels). The latter combination is a canonical inducer of necroptosis through RIPK3 activation. 5 μM ALD-6-85 and SS-1-127 were used in top and bottom panels, respectively.
(§2) The activity of ALD-6-85 was tested in the cells expressing either wild type MLKL or mutant expressing a bulky Trp residue in place of M272 gatekeeper residue. This mutation is expected to disrupt binding of the drug to MLKL. […] To ensure that observed reduction in killing is not due to the intrinsically lower pro-death activity of M272W mutant, cells were also stimulated with TNF+IDN, inducing necroptosis through a canonical TNFR1-RIPK1-RIPK3-MLKL pathway. […] We also generated MEFs expressing S345A, S347A double mutant of mouse MLKL.

[2] = system: transformed mouse embryonic fibroblasts with genetic deletions of RIPK3 and MLKL genes; experiment: Viability of transformed mouse embryonic fibroblasts with genetic deletions of RIPK3 and MLKL genes; conditions: MEFs with genetic deletions of RIPK3 and MLKL; FIG. 3
Protocol: Viability of transformed mouse embryonic fibroblasts with genetic deletions of RIPK3 and MLKL genes and treated with SS-1-127 are shown. Affinities of select MLKL activators against recombinant human RIPK1, RIPK3, and MLKL were determined by DiscoveRx.
The compounds described herein are capable of directly activating the downstream executioner of necroptosis, MLKL, thus bypassing a requirement for RIPK3 (FIG. 2).

[3] = biological target: T2, S345A/S347A mutant of MLKL (Mus musculus, UniProt Q9D2Y4, S345A/S347A); experiment: Viability of Mlkl-/- MEFs expressing S345A/S347A mutant of mouse MLKL-FLAG (CellTiter-Glo); conditions: 5 μM; 50 ng/ml Dox 6 hr, then 24 hr; FIG. 6
T2 sequence (Q9D2Y4 1-472 S345A/S347A): T1 sequence (Q9D2Y4 1-472 M272W) with W272M, S345A, S347A
Protocol: as §1, §2

[4] = biological target: T3, E239Q mutant of mouse MLKL (Mus musculus, UniProt Q9D2Y4, E239Q); experiment: Viability of Mlkl-/- MEFs expressing wild type or E239Q mutant of mouse MLKL-FLAG (CellTiter-Glo); conditions: E239Q vs wild type mouse MLKL; 50 ng/ml Dox 6 hr, then compound 24 hr; FIG. 7
T3 construct: expressed in transfected cells; host or cells: Mlkl-/- mouse embryonic fibroblasts (MEFs), lentiviral, doxycycline-inducible
T3 sequence (Q9D2Y4 1-472 E239Q): T1 sequence (Q9D2Y4 1-472 M272W) with E239Q, W272M
Protocol: Mlkl^−/− mouse embryonic fibroblasts (MEFs) were stably infected with lentiviral vector encoding wild type and E239Q mutant of mouse MLKL-FLAG under the control of the Doxocyclin (Dox)-inducible promoter. […] After 24 hr, cell viability at the end of treatment was determined using CellTiter-Glo Viability assay (Promega).

CCN(CC)CCOc1ccc(Nc2ncc3cc(-c4ccc(O)c([N+](=O)[O-])c4)c(=O)n(C)c3n2)cc1 [ALD-6-85]
Death in cells expressing M272W MLKL compared to wild type [1]: induces reduced death in the cells expressing M272W MLKL compared to wild type protein

CCN(CC)CCOc1ccc(Nc2ncc3cc(-c4ccc(O)c(C#N)c4)c(=O)n(C)c3n2)cc1 [SS-1-127, 5-(2-((4-(2-(Diethylamino)ethoxy)phenyl)amino)-8-methyl-7-oxo-7,8-dihydropyrido[2,3-d]pyrimidin-6-yl)-2-hydroxybenzonitrile]
Cell death induced by SS-1-127: dependence on MLKL and RIPK3 [2]: dependent on MLKL expression and independent from RIPK3 | Effect of S345A, S347A double mutation on killing by SS-1-127 [3]: minor effect on killing | Activity / cell death with E239Q mutation compared to wild type MLKL [4]: much improved activity when combined with E239Q mutation compared to wild type MLKL
